Assay results published in patent US20180318355A1, “METHODS AND COMPOSITIONS FOR IMPROVED TISSUE REGENERATION BY SUPPRESION OF INTERFERIN-GAMMA AND TUMOR NECROSIS FACTOR-ALPHA” (Alfred E. Mann Institute for Biomedical Eng. at the …, priority 2011, published 2018).
Entries after “also recorded” stand apart in the source; their conditions may differ. Where a SMILES comes first, the peptide text is derived from it. The star is where a group is joined. Cbz = O=C(OCc1ccccc1)*; CH2F = FC*

Experiments:
BMMSCs [1] = assay: siRNA and inhibitors: IFN-γ/TNF-α-induced BMMSC death; assay type: cell-based, mouse; settings: siRNA or inhibitor treatment before IFN-γ/TNF-α, toluidine blue staining
Experimental: (§1) SiRNAs for Fas, TNFR2, IKK, FLIP and XIAP were used to treat the BMMSCs according to the manufacture's instruction, and IFN-γ and TNF-α were added for 24 hrs. Inhibitors for internalization (Latrunculin A, 0.2 μM), pan caspase (Z-VAD (OMe)-FMK, 50 μM), caspase 8 ([…], 20 μM) and caspase 3 (Z-DEVD-FMK, 20 µM) were used to treat the BMMSCs at 4 hrs before IFN-γ and TNF-α were added. Cell apoptosis were analysis by immunofluorescence staining and FACS^Calibur (Annexin V-PE apoptosis detection kit I) and Western blot analysis for caspase 8, cleaved caspase 8, caspase 3 and cleaved caspase 3.

[2] = test system: Fas, caspase 8, caspase 3; assay: Western blot of Fas, cleaved caspase 8 and cleaved caspase 3 in BMMSCs; assay type: cell-based, mouse
Experimental: Western blot analysis. Total protein was extracted using M-PER mammalian protein extraction reagent (Thermo, Rockford, Ill.). Nuclear protein was obtained using NE-PER nuclear and cytoplasmic extraction reagent (Thermo). Protein was applied and separated on 4-12% NuPAGE gel (Invitrogen) and transferred to Immobilon™-P membranes (Millipore). The membranes were blocked with 5% non-fat dry milk and 0.1% tween-20 for 1 hour, followed by incubation with the primary antibodies (1:20¬1000 dilution) at 4° C. overnight. Horseradish peroxidase-conjugated IgG (Santa Cruz Biosciences; 1:10,000) was used to treat the membranes for 1 hour, and enhanced with a SuperSignal® West Pico Chemiluminescent Substrate (Thermo). The bands were detected on BIOMAX MR films (Kodak, Rochester, N.Y.). Each membrane was also stripped using a stripping buffer (Thermo) and reprobed with anti-β-actin antibody to quantify the amount of loaded protein.
as §1

Fas = Fas internalization (immunocytochemical staining); assay type: cell-based, mouse; settings: caspase inhibitor in IFN-γ/TNF-α-treated BMMSCs vs control group
Experimental: as §1
Fas internalization. P1 BMMSCs were seeded to 2-well chamber slide. IFN-γ (50 ng/ml) was added to pre-treat BMMSCs for 24 hours, and then TNF-α (20 ng/ml) was added. At the 0.5, 1, 2, 4 hours after TNF-α was added, the cells were washed by PBS twice, and fixed with 4% PFA for 15 min. After treated by Triton-X 15 min, the cells were blocked with normal serum matched to secondary antibodies, incubated with 1 μg/ml anti-Fas (Santa Cruz) antibody at room temperature for 2 hours, treated with Rhodamin-conjugated secondary antibodies (1:200, Jackson ImmunoResearch). Then the cells were incubated with ([…] (1:40; Invitrogen) at room temperature for 20 min, and were mounted by vectashield mounting medium DAPI (Vector Laboratories).

calvarial bone defects = assay: Calvarial bone defect repair by BMMSC/gelfoam implantation; assay type: in vivo, C57BL/6J mice
Experimental: Calvarial bone defect model in C57BL/6J mice. The skin of C57BL/6J mice was cut and periosteum was elevated. The surface of mouse cavarial bone was exposed, and oversize bone defects of 7 mm×8 mm were established. The bone defect was larger than usually critical size with diameter of 4 mm.
Implantation of BMMSCs to calvarial bone defects in C57BL/6J mice. 4×10^6 BMMSCs were seeded to a size of 7 mm×8 mm gelfoam (Pharmaca, Boulder, Colo.) and cultured for 3 days in vitro. The gelfoam with BMMSCs was placed to the calvarial bone defects and covered completely by skins. For aspirin treated group, the BMMSCs seeded on gelfoam were pretreated with 50 μg/ml aspirin for 3 days, then placed to the calvarial bone defect. Another gelfoam with 100 μg aspirin as a releasing system was covered on the surface of the gelfoam with BMMSCs (FIG. 14).

TNF-α = assay: ELISA of TNF-α level in BMMSC implants; assay type: in vivo, mice; settings: aspirin treatment vs untreated control, 2 to 14 days post implantation
From the text: (§2) Kits. Pan T cell isolation kit II and CD4^+CD25^+ regulatory T Cell isolation kit were purchased from Miltenyi Biotec (Bergisch Gladbach, Germany). Mouse IFN-γ, TNF-α, IL-6, IL-17A, IL-4 and IL-10 ELISA Ready-SET-GO kits were purchased from eBioscience (San Diego, Calif.). siRNA kits for Fas, Smad 6, TNFR2, IKK, FLIP and XIAP were purchased from Santa Cruz Biosciences (Santa Cruz, Calif.).

IFN-γ positive cells = assay: Immunohistochemical staining of IFN-γ positive cells in BMMSC implants; assay type: in vivo; settings: aspirin treated vs untreated control, C57BL6 mice
Experimental: (§3) Immunofluorescent and immunochemical microscopy. The transplants were harvested, fixed in 4% paraformaldehyde and then decalcified with 5% ethylenediaminetetraacetic acid (EDTA, pH 7.4), followed by paraffin or optimal cutting temperature compound (OCT, Sakura Fineteck Inc., Torrance, Calif.) embedding. The paraffin or frozen sections were blocked with normal serum matched to secondary antibodies, incubated with the specific or isotype-matched mouse antibodies (1:200) overnight at 4° C. For immunofluorescent staining, the samples were treated with Rhodamin/FITC-conjugated secondary antibodies (1:200, Jackson ImmunoResearch, West Grove, Pa.; Southern Biotechnology, Birmingham, Ala.), and were mounted by means of a vectashield mounting medium containing 4′,6-diamidino-2-phenylindole (DAPI) (Vector Laboratories, Burlingame, Calif.). For immunochemical staining, the samples were stained by using Zymed SuperPicture™ Kit (Invitrogen Corporation) according to the manufacturer's instruction.
(§4) Immunochemical microscopy. The transplants were harvested, fixed in 4% paraformaldehyde and then decalcified with 5% ethylenediaminetetraacetic acid (EDTA, pH 7.4), followed by paraffin or optimal cutting temperature compound (OCT, Sakura Fineteck Inc., Torrance, Calif.) embedding. […]

IL-10 = assay: ELISA of IL-10 level in BMMSC implants; assay type: in vivo, mice; settings: aspirin treatment vs untreated control, 2 to 14 days post implantation
From the text: as §2

TNF-α positive cells = assay: Immunohistochemical staining of TNF-α positive cells in BMMSC implants; assay type: in vivo; settings: aspirin treated vs untreated control, C57BL6 mice
Experimental: as §3, §4

[3] = test system: osteoclastogenesis, osteogenesis; settings: literature (13-15); cited from earlier work
GFP^+ BMMSCs = assay: Cell survival assay, subcutaneous GFP+ BMMSC implantation; assay type: in vivo, mice
Experimental: Cell survival assay. 4×10^6 BMMSCs isolated from C57BL/6-Tg (CAG-EGFP)1Osb/J mice were combined with different concentrations of IFN-γ (0, 20, 50, 100, 200 ng/ml) and TNF-α (0, 20, 50, 100, 200 ng/ml) and subcutaneously transplanted into immunocompromised mice, hydrogel was used as a slowly released carrier. Thirty days after translation, the implants were harvested and digested in a solution of 3 mg/mL collagenase type I (Worthington Biochem) and 4 mg/mL dispase (Roche) for 1 h at 37° C. Single-cell suspensions were obtained by passing the cells through a 70 μm strainer (BD Bioscience). 1.0-1.5×10^6 BMMSCs were seeded into 100 mm culture dishes (Corning) and incubated for 48 hours under 37° C. at 5% CO2 condition. To eliminate the non-adherent cells, the cultures were washed with PBS twice. The attached cells were cultured for 10 days with alpha minimum essential medium (α-MEM, Invitrogen) supplemented with 20% FBS, 2 mM L-glutamine (Invitrogen), 55 μM 2-mercaptoethanol (Invitrogen), 100 U/ml penicillin, and 100 μg/ml streptomycin (Invitrogen). The numbers of GFP positive cells were counted under fluorescent microscopy.

[4] = test system: BMMSC-mediated bone formation; assay: BMMSC-mediated bone formation, subcutaneous BMMSC/HA/TCP implantation; assay type: in vivo; settings: immunocompromised mice
Experimental: BMMSC-mediated bone formation. Approximately 4.0×10^6 BMMSCs were mixed with hydroxyapatite/tricalcium phosphate (HA/TCP) ceramic particles (40 mg, Zimmer Inc., Warsaw, Ind.) as a carrier and subcutaneously implanted into the dorsal surface of 8-10 weeks old immunocompromised mice or C57BL/6J mice. At eight weeks post-implantation, the implants were harvested, fixed in 4% paraformaldehyde and then decalcified with 5% EDTA (pH 7.4), followed by paraffin embedding. The 6 μm paraffin sections were stained with hematoxylin and eosin (H&E) and analyzed by an NIH Image J. Five fields were selected and newly formed mineralized tissue area in each field was calculated and shown as a percentage to total tissue area.
Cytokines in BMMSC-mediated bone formation. Approximately 4.0×10^6 of littermate-derived or autologous BMMSCs were mixed with HA/TCP ceramic powders (40 mg, Zimmer Inc.), and hydrogel (Glycosan Biosysterms, Salt Lake City, Utah) with 200 ng IFN-γ, TNF-α, IL-4, IL-6 or IL-17A were covered on the surface of the implants as a slow released system. At eight weeks post-implantation, the implants were harvested and newly formed mineralized tissue areas were analyzed. […]
BMMSC-mediated bone formation. Approximately 4.0×10^6 of littermate-derived or autologous BMMSCs were mixed with hydroxyapatite/tricalcium phosphate (HA/TCP) ceramic particles (40 mg, Zimmer Inc., Warsaw, Ind.) as a carrier and subcutaneously implanted into the dorsal surface of 8-10 weeks old immunocompromised mice or C57BL6 mice. When aspirin was used, BMMSCs were treated with 50 μg/ml aspirin for 2 days and mixed with HA/TCP particles to be subcutaneously implanted into immunocompromised mice. When IFN-γ and TNF-α were used in the subcutaneous implants, 200 ng IFN-γ, TNF-α or/and 100 μg aspirin mixed with 250 μl hydrogel as a slow released system and subcutaneously co-implanted to the dorsal surface of 8-10 weeks old immunocompromised mice.
At eight weeks post-implantation, the implants were harvested, fixed in 4% paraformaldehyde and then decalcified with 5% EDTA (pH 7.4), followed by paraffin embedding. The 6 μm paraffin sections were stained with hematoxylin and eosin (H&E) and analyzed by an NIH Image J. Five fields were selected and newly formed mineralized tissue area in each field was calculated and shown as a percentage to total tissue area.

IFN-γ = assay: ELISA of IFN-γ level in BMMSC implants; assay type: in vivo, mice; settings: aspirin treatment vs untreated control, 2 to 14 days post implantation
From the text: as §2

BMMSCs [5] = assay: Cell apoptosis and cell survival assay in vitro (toluidine blue, Annexin V); settings: TNF-α 0, 5, 50, 100 ng/ml, flow cytometric analysis
Experimental: Cell apoptosis and cell survival assay. 0.5×10^6 BMMSCs were seeded to 6-well culture plate and co-cultured with different doses of recombined IL-4, IL-6, IL-17A, TGF-β1, TNF-α and IFN-γ (0, 10, 20, 50, 100, 200 ng/ml) for 3 days. To measure the cell viability, the total cells were analyzed by using a cell counting kit-8 (Dojindo Molecular Technoloies, Gaithersburg, Md.) according to the manufacture's instruction. And the culture plates with cells were stained with 2% toluidine blue O and 2% paraformaldehyde (Sigma-Aldrich Corporate, St. Louis, Mo.).
For cell apoptosis analysis, the BMMSCs were stained by Annexin V-PE apoptosis detection kit I (BD Bioscience) following manufacture's protocol, and analyzed by FACS^Calibur (BD Bioscience).
IFN-γ and TNF-α synergism for apoptosis. For cell apoptosis staining, the 1×10^4 BMMSCs were seeded onto two chambers slide, IFN-γ (50 ng/ml) and TNF-α (20 ng/ml) were used to treat the BMMSCs for 24 hrs either separately or combined, Annexin V-PE apoptosis detection kit I (BD Bioscience) was used to stain the BMMSCs following manufacture's protocol, and analyzed on microscopy and FACS^Calibur (BD Bioscience). Cell viability was analyzed by using cell counting kit, and culture plates were stained with 2% toluidine blue O and 2% paraformaldehyde.
IFN-γ and TNF-α synergism for apoptosis. 0.5×10^6 BMMSCs were seeded to 6-well culture plate and co-cultured with different doses of TNF-α (0, 5, 50, 100 ng/ml) with or without IFN-γ (50 ng/ml) for I day. Then, the BMMSCs were stained by Annexin V-PE apoptosis detection kit I (BD Bioscience) following manufacture's protocol, and analyzed by FACS^Calibur (BD Bioscience).

[6] = siRNA or inhibitor treatment before IFN-γ/TNF-α
[7] = wild type BMMSCs, IFN-γ 50 ng/ml, TNF-α 20 ng/ml, alone or co-stimulated

In the case of `CC[C@H](C)[C@H](NC(=O)OCc1ccccc1)C(=O)N[C@@H](CCC(=O)OC)C(=O)N[C@H](C(=O)N[C@@H](CC(=O)OC)C(=O)CF)[C@@H](C)O` [Caspase 8 inhibitor, 2-IETD-FMK] (Cbz-IE(OMe)TD(OMe)-CH2F), the “IFN-γ/TNF-α-induced BMMSC death” value (BMMSCs [1]) is reported as “rescuing INF-γ/TNF-α-induced cell death”, the “cleaved caspase 3 in IFN-γ/TNF-α-treated BMMSCs” value [2, 6] is reported as “reduce levels” and the “cleaved caspase 8 in IFN-γ/TNF-α-treated BMMSCs” value [2, 6] is reported as “reduce levels”. The “number of BMMSCs with Fas internalization” value (Fas) was “reduced number of Fas internalization”.
In the case of `CC(=O)Oc1ccccc1C(=O)O` [aspirin], the “repair of 7×8 mm calvarial bone defects” value (calvarial bone defects; BMMSCs cultured with 50 μg/ml aspirin, gelfoam containing 100 μg aspirin, 12 weeks, microQCT, vs BMMSC/gelfoam) is reported as “completely repaired; also recorded: significantly improves BMMSC-based calvarial defect repairing; also recorded: marked improvement in repairing calvarial defects”, the “structure of regenerated tissues versus normal calvarial tissues” value (calvarial bone defects; BMMSCs with gelfoam containing aspirin (100 μg)) is reported as “analogous to normal calvarial tissues” and the “level of TNF-α in BMMSC implants” value (TNF-α) is reported as “reduces; also recorded: suppressed”. For the same compound, the “IFN-γ positive cells in BMMSC implants” value (IFN-γ positive cells) was “significantly decreased; also recorded: suppressive effect”, the “level of IL-10 in BMMSC implants” value (IL-10) was “not and without affecting” and the “TNF-α positive cells in BMMSC implants” value (TNF-α positive cells) was “significantly decreased; also recorded: suppressive effect”. For the same compound, the osteoclastogenesis [3] was “inhibits osteoclastogenesis”, the osteogenesis [3] was “improves osteogenesis” and the “numbers of surviving GFP positive BMMSCs in implants” value (GFP^+ BMMSCs; 50 μg/ml aspirin pre-treated 2 days, 100 μg aspirin co-implanted, 4 to 30 days post implantation) was “significantly increased numbers of survival cells; also recorded: significant increase in survival of BMMSCs”. The “BMMSC-mediated bone formation suppressed by IFN-γ or TNF-α” value ([4]; 200 ng IFN-γ or TNF-α co-implanted, 50 μg/ml aspirin pre-treatment and 100 μg aspirin co-implanted) was “significant rescuing of BMMSC-mediated bone formation; also recorded: restored bone formation”, the “amount of new bone formation” value ([4]; BMMSCs treated with 50 μg/ml aspirin for 2 days, HA/TCP, vs untreated control) was “increased” and the “level of IFN-γ in BMMSC implants” value (IFN-γ) was “reduces; also recorded: suppressed”.
In the case of TNF-α, the Fas expression [2, 7] is reported as “slightly increase”, the “activation of caspase 3 and caspase 8” value [2, 7] is reported as “slightly increase” and the BMMSC apoptosis (BMMSCs [5]) is reported as “dose-dependent BMMSC apoptosis”. The “numbers of surviving BMMSCs in implants” value (GFP^+ BMMSCs; TNF-α 50 ng/ml, immunocompromised mice, 30 days post implantation, vs untreated control) was “marked reduction in the numbers of survived BMMSCs; also recorded: significant reduction in the numbers of surviving cells” and the “new bone formation in BMMSC implants” value ([4]; 200 ng cytokine in hydrogel co-implanted with BMMSCs/HA/TCP, 8 weeks post implantation) was “very limited bone formation; also recorded: inhibited subcutaneous bone formation; also recorded: reduced BMMSC-mediated bone formation; also recorded: significantly reduced bone formation”.
